In patent publication US3960862A, “1,3-Diazacycloalkeno-[1,2,d]-benzo-[f-]-1,3,4-thiadiazepines” (BASF Aktiengesellschaft, priority 1973, dated 1976):

Tests used:
[1] = pharmacological screening (blood pressure, sympathomimetric and central nervous system effects; analgesic, spasmolytic, anti-inflammatory, broncholytic properties); settings: in vivo
[2] = effective dose compared with range of toxic doses; settings: in vivo
[3] = tested on: phenylquinone-induced writhing reactions in mice; assay: writhing test on mice (phenylquinone i.p.), peroral application; format: in vivo; settings: for ΣR x ± sx (frequency of writhing reactions) / % effect (Decrease in the writhing reactions): n = 10, mice
Experimental: In this test p-benzoquinone (phenylquinone) in a 0.02% aqueous solution in a volume of 10 ml/kg of body weight i.p. serves to initiate pain. The typical writhing reactions which occur after a certain latency period are recorded in their frequency; decrease in the writhing frequency is evaluated as analgesic effect. The following Table indicates the numerical connection between dosage and effect after peroral application of the active ingredient.
^o T-test for independent random samples, bilateral questioning, significant down to 0.05, below 0.001 not given. n = number of test animals. The values are mean values ± mean error of the mean value.

[4] = tested on: central nervous system; assay: behavior of animals treated with the compound; set-up: species or system mice; settings: mouse, in vivo

SMILES | pharmacological effect, particularly analgesic properties [1] | effective dose relative to toxic doses [2] | ΣR x ± sx (frequency of writhing reactions) ([3]; 4.64 mg/kg peroral) | % effect (Decrease in the writhing reactions) ([3]; 4.64 mg/kg peroral, P <0.02) | ΣR x ± sx (frequency of writhing reactions) ([3]; 10 mg/kg peroral) | % effect (Decrease in the writhing reactions) ([3]; 10 mg/kg peroral, P <0.002) | ΣR x ± sx (frequency of writhing reactions) ([3]; 21.5 mg/kg peroral) | % effect (Decrease in the writhing reactions) ([3]; 21.5 mg/kg peroral, P <0.001) | ΣR x ± sx (frequency of writhing reactions) ([3]; 46.4 mg/kg peroral) | % effect (Decrease in the writhing reactions) ([3]; 46.4 mg/kg peroral, P <0.001) | ΣR x ± sx (frequency of writhing reactions) ([3]; 100 mg/kg peroral) | % effect (Decrease in the writhing reactions) ([3]; 100 mg/kg peroral, P <0.001) | ΣR x ± sx (frequency of writhing reactions) ([3]; 215 mg/kg peroral) | % effect (Decrease in the writhing reactions) ([3]; 215 mg/kg peroral, P <0.001) | ED50 ([3]; Mus musculus, po, peroral application, mice, from regression line) | behavior of treated animals [4]
O=[N+]([O-])c1cccc(C2=NN3CCCN=C3c3ccccc3S2)c1 [Example 18, Tetrahydropyrimidino-[1,2-d]-benzo-[f]-2-(3-nitrophenyl)-1,3,4-thiadiazepine] | singled out for their pharmacological effect, particularly their analgesic properties | much below the range of toxic doses | 14.7 ± 2.1 | 28.1 ± 10.3% | 12.7 ± 2.4 | 37.9 ± 11.8% | 10.4 ± 1.9 | 49.1 ± 9.4% | 8.9 ± 1.5 | 56.5 ± 7.2% | 6.2 ± 1.7 | 69.7 ± 8.4% | 0.8 ± 0.8 | 96.1 ± 3.9% | 21.6 mg/kg | consistent with a central nervous system depressant action
O=[N+]([O-])c1cccc(C2=NN3CCN=C3c3ccccc3S2)c1 [Example 4, Imidazolino-[1,2-d]-benzo-[f]-2-(3-nitrophenyl)-1,3,4-thiadiazepine] | singled out for their pharmacological effect, particularly their analgesic properties | – | – | – | – | – | – | – | – | – | – | – | – | – | – | –
